{"source": "BindingDB's records for doi:10.1124/jpet.104.065391", "about": "(University of Arizona, 2004)", "key": {"[1]": {"biological_target": "Kappa-type opioid receptor (Homo sapiens, UniProt P41145)", "sequence (P41145 whole entry)": "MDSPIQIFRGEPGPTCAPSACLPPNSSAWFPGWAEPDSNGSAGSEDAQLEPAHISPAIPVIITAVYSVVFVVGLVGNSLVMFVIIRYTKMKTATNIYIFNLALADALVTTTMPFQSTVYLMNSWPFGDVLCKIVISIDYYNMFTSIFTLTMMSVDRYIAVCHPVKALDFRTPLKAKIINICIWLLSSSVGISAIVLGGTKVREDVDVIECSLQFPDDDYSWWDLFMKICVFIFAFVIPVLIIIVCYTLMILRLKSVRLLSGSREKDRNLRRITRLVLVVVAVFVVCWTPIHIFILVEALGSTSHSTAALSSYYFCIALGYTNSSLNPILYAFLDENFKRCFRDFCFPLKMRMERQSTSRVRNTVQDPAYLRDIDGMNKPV"}, "Mu-type opioid receptor": {"biological_target": "Mu-type opioid receptor (Homo sapiens, UniProt P35372)", "sequence (P35372 whole entry)": "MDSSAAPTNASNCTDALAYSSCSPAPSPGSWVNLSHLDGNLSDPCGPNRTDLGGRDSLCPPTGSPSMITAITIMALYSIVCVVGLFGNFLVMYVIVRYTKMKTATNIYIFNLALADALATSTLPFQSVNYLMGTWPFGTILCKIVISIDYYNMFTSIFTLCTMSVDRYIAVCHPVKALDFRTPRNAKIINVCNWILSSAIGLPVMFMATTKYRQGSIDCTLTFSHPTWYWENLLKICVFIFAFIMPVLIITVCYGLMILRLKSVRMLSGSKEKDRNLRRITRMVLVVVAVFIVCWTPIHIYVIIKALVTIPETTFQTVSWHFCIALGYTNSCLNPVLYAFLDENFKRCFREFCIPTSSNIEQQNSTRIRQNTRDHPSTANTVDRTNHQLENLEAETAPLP"}}, "note": "pKi: −log10 of the molar value. Where a SMILES comes first, the peptide text is derived from it. [ ]: non-standard residue; d: D form. dNle = CCCC[C@@H](N)C(=O)O", "data": [{"smiles": "CCCC[C@@H](NC(=O)[C@@H](Cc1ccccc1)NC(=O)[C@H](N)Cc1ccccc1)C(=O)N[C@H](CCCNC(=N)N)C(N)=O", "note": "[d-Phe-d-Phe-d-Nle-d-Arg-NH2] (H-[dF][dF][dNle][dR]-NH2)", "values": [{"measurement": "pKi", "setting": "[1]", "value": 9.84}, {"measurement": "pKi", "setting": "Mu-type opioid receptor", "value": 5.34}]}]}
